Assay results as given in ChEMBL document CHEMBL4483862, “Open-source discovery of chemical leads for next-generation chemoprotective antimalarials” (2018).

System: Plasmodium berghei
Test: Luciferase/luciferin-expressing antifolate-resistant parasites were used to infect a culture of HepG2 cells that were pre-incubated with compounds. Infected hepatocytes emit light due to the luciferase reaction. Assay results are presented as the percent inhibition of light emission compared to control. […]
Format: functional
Details: sporozoite; for IC90: read-out: LUCIFERASE INFECTION ASSAY - IC90

| SMILES | IC90 [µM] | further results |
| --- | --- | --- |
| Cc1cc(C(=O)CSc2nc3ccccc3[nH]2)c(C)n1CC1CCCO1 (configuration not stated) | 4.43 | IC50 (HEPG2TOX_HILL_SLOPE 3.03, HEPG2TOX_R_SQUARED 0.337, PBLUC_HILL_SLOPE 0.528, 1.10, PBLUC_R_SQUARED 0.856, 0.809, read-out: LUCIFERASE INFECTION ASSAY - IC50): 0.144 µM |
| C[C@]12CC[C@H](O)C[C@H]1CC[C@@H]1C2CC[C@]2(C)[C@@H](C3=CC(=O)OC3)[C@@H](O)C[C@]12O (some centres not stated) | 8.37 | IC50 (HEPG2TOX_HILL_SLOPE 3.04, HEPG2TOX_R_SQUARED 0.92, PBLUC_HILL_SLOPE 1.95, PBLUC_R_SQUARED 0.451, read-out: LUCIFERASE INFECTION ASSAY - IC50): 2.7 µM |
| Cc1nnsc1-c1onc(C)c1C(=O)Nc1cc(Cl)cc(Cl)c1 | > 8.94 | IC50 (HEPG2TOX_HILL_SLOPE 2.99, HEPG2TOX_R_SQUARED 0.625, PBLUC_HILL_SLOPE 10.3, PBLUC_R_SQUARED 0.237, read-out: LUCIFERASE INFECTION ASSAY - IC50): 8.32 µM |
| O=C(NNc1ncc(C(F)(F)F)cc1Cl)c1c(Cl)cccc1Cl | > 8.58 | IC50 (HEPG2TOX_HILL_SLOPE 3.04, HEPG2TOX_R_SQUARED 0.858, PBLUC_HILL_SLOPE 3.51, PBLUC_R_SQUARED 0.0313, read-out: LUCIFERASE INFECTION ASSAY - IC50): 6.25 µM |
| O=C(Nc1ccccc1C(=O)Nc1nnc(C(F)(F)F)s1)c1ccccc1Cl | 2.71 | IC50 (HEPG2TOX_HILL_SLOPE 2.99, HEPG2TOX_R_SQUARED 0.762, PBLUC_HILL_SLOPE 9.09, PBLUC_R_SQUARED 0.594, read-out: LUCIFERASE INFECTION ASSAY - IC50): 2.13 µM |
| COc1cccc(/C=C/c2nnc(O)c(C#N)c2C)c1 | 6.75 | IC50 (HEPG2TOX_HILL_SLOPE 3.05, HEPG2TOX_R_SQUARED 0.959, PBLUC_HILL_SLOPE 3.8, PBLUC_R_SQUARED 0.551, read-out: LUCIFERASE INFECTION ASSAY - IC50): 3.79 µM |
| Clc1ccc(-c2csc3ncnc(Sc4nnnn4C4CC4)c23)cc1 | > 10 | IC50 (HEPG2TOX_HILL_SLOPE 2.99, HEPG2TOX_R_SQUARED 0.963, PBLUC_HILL_SLOPE 2.19, PBLUC_R_SQUARED 0.132, read-out: LUCIFERASE INFECTION ASSAY - IC50): 8.41 µM |
| CCOc1ccc(/C=N/NC(=O)c2cc3c(s2)CCCC3)c(O)c1 | > 10 | IC50 (HEPG2TOX_HILL_SLOPE 3.02, HEPG2TOX_R_SQUARED 0.79, PBLUC_HILL_SLOPE 4.8, PBLUC_R_SQUARED 0.349, read-out: LUCIFERASE INFECTION ASSAY - IC50): 6.97 µM |
| CCN1C(=O)N(CCCc2cccnc2)C(=O)C12CCN(Cc1cnc(-c3ccccc3)s1)CC2 | > 6.74 | IC50 (HEPG2TOX_HILL_SLOPE 2.98, HEPG2TOX_R_SQUARED 0.92, PBLUC_HILL_SLOPE 12.2, PBLUC_R_SQUARED 0.164, read-out: LUCIFERASE INFECTION ASSAY - IC50): 6.3 µM |
| Cc1noc(CSc2nnc(Nc3ccc(OC(F)(F)F)cc3)s2)n1 | > 10 | IC50 (HEPG2TOX_HILL_SLOPE 3.01, HEPG2TOX_R_SQUARED 0.966, PBLUC_HILL_SLOPE 1.72, PBLUC_R_SQUARED 0.424, read-out: LUCIFERASE INFECTION ASSAY - IC50): 4.45 µM |
| CN(C)c1ccc(CNc2nccc3nc(-c4ccc(F)c(F)c4)[nH]c23)cc1 | 9.24 | IC50 (HEPG2TOX_HILL_SLOPE 2.98, HEPG2TOX_R_SQUARED 0.951, PBLUC_HILL_SLOPE 0.962, PBLUC_R_SQUARED 0.864, read-out: LUCIFERASE INFECTION ASSAY - IC50): 0.941 µM |
| O=C(Nn1cn[nH]c1=S)c1ccc2ccccc2n1 | > 10 | IC50 (HEPG2TOX_HILL_SLOPE 3, HEPG2TOX_R_SQUARED 0.551, PBLUC_HILL_SLOPE 3.2, PBLUC_R_SQUARED 0.429, read-out: LUCIFERASE INFECTION ASSAY - IC50): 5.8 µM |
| c1ccc2c(CN3CCN(c4ncnc5sccc45)CC3)csc2c1 | > 10 | IC50 (HEPG2TOX_HILL_SLOPE 3.07, HEPG2TOX_R_SQUARED 0.815, PBLUC_HILL_SLOPE 3.96, PBLUC_R_SQUARED 0.666, read-out: LUCIFERASE INFECTION ASSAY - IC50): 6.85 µM |
| Cc1ccc(Sc2ccc(NC(=O)C3CCN(C(=O)c4ccoc4)CC3)cc2)c(C)c1 | 9.64 | IC50 (HEPG2TOX_HILL_SLOPE 3.01, HEPG2TOX_R_SQUARED 0.581, PBLUC_HILL_SLOPE 14.8, 16.7, PBLUC_R_SQUARED 0.181, 0.0620, read-out: LUCIFERASE INFECTION ASSAY - IC50): 9.11 µM |
| CC(C)(C)c1cc(NS(=O)(=O)c2cc(C(F)(F)F)cc(C(F)(F)F)c2)c(C#N)s1 | 2.55 | IC50 (HEPG2TOX_HILL_SLOPE 3.04, HEPG2TOX_R_SQUARED 0.973, PBLUC_HILL_SLOPE 26.7, PBLUC_R_SQUARED 0.729, read-out: LUCIFERASE INFECTION ASSAY - IC50): 2.35 µM |
| Cc1ccccc1C(=O)Nc1nc2ccccn2c1C(=O)NC1CCCCC1 | > 8.77 | IC50 (HEPG2TOX_HILL_SLOPE 2.99, HEPG2TOX_R_SQUARED 0.96, PBLUC_HILL_SLOPE 20.4, PBLUC_R_SQUARED 0.198, read-out: LUCIFERASE INFECTION ASSAY - IC50): 7.88 µM |

| SMILES | IC90 [µM] | further results |
| --- | --- | --- |
| CCN(CC)C(=O)c1ccc(Nc2nc(C(F)(F)F)nc3ccccc23)cc1 | > 10 | IC50 (HEPG2TOX_HILL_SLOPE 3.04, HEPG2TOX_R_SQUARED 0.82, PBLUC_HILL_SLOPE 1.45, PBLUC_R_SQUARED 0.471, read-out: LUCIFERASE INFECTION ASSAY - IC50): 5.81 µM |
| CCc1cccc2c(C(=O)COC(=O)C34CC5CC(CC(O)(C5)C3)C4)c[nH]c12 | 4.59 | IC50 (HEPG2TOX_HILL_SLOPE 2.99, HEPG2TOX_R_SQUARED 0.981, PBLUC_HILL_SLOPE 3.51, PBLUC_R_SQUARED 0.785, read-out: LUCIFERASE INFECTION ASSAY - IC50): 2.46 µM |
| Cc1nc2ccc(N/N=C3\C=CC(=O)c4ncccc43)cc2s1 | 4.05 | IC50 (HEPG2TOX_HILL_SLOPE 2.99, HEPG2TOX_R_SQUARED 0.974, PBLUC_HILL_SLOPE 13.8, PBLUC_R_SQUARED 0.408, read-out: LUCIFERASE INFECTION ASSAY - IC50): 3.46 µM |
| O=C(Nc1nc2ccccc2[nH]1)c1oc2ccccc2c1CSCc1ccccc1 | 5.1 | IC50 (HEPG2TOX_HILL_SLOPE 3.05, HEPG2TOX_R_SQUARED 0.924, PBLUC_HILL_SLOPE 8.31, PBLUC_R_SQUARED 0.524, read-out: LUCIFERASE INFECTION ASSAY - IC50): 3.92 µM |
| Cc1ccc(NC(=O)Nc2ccc3nc(Cc4ccccc4)nn3c2)cc1 | 2.11 | IC50 (HEPG2TOX_HILL_SLOPE 3.07, HEPG2TOX_R_SQUARED 0.95, PBLUC_HILL_SLOPE 55.2, PBLUC_R_SQUARED 0.375, read-out: LUCIFERASE INFECTION ASSAY - IC50): 2.02 µM |
| Clc1ccc(SCc2cc(N3CCCCC3)nc(-c3ccccn3)n2)cc1 | 2.67 | IC50 (HEPG2TOX_HILL_SLOPE 3.02, HEPG2TOX_R_SQUARED 0.983, PBLUC_HILL_SLOPE 17.6, PBLUC_R_SQUARED 0.462, read-out: LUCIFERASE INFECTION ASSAY - IC50): 2.35 µM |
| Cc1nccnc1-c1ccnn1C(=O)Nc1cc(Cl)cc(Cl)c1 | 0.481 | IC50 (HEPG2TOX_HILL_SLOPE 3.03, HEPG2TOX_R_SQUARED 0.982, PBLUC_HILL_SLOPE 8.5, PBLUC_R_SQUARED 0.804, read-out: LUCIFERASE INFECTION ASSAY - IC50): 0.372 µM |
| Cc1cc(C(=O)Cn2nnc3ccccc3c2=O)c(C)n1-c1ccccc1 | 0.0451 | IC50 (HEPG2TOX_HILL_SLOPE 3.03, HEPG2TOX_R_SQUARED 0.216, PBLUC_HILL_SLOPE 10.9, PBLUC_R_SQUARED 0.324, read-out: LUCIFERASE INFECTION ASSAY - IC50): 0.0369 µM |
| Cc1nc2n(C)c3ccccc3[n+]2c(C)c1C | > 10 | IC50 (HEPG2TOX_HILL_SLOPE 3.01, HEPG2TOX_R_SQUARED 0.767, PBLUC_HILL_SLOPE 4.79, PBLUC_R_SQUARED 0.113, read-out: LUCIFERASE INFECTION ASSAY - IC50): 6.7 µM |
| Cc1cccc(OC2=C(Cl)C(=O)c3ccccc3C2=O)c1 | > 11 | IC50 (HEPG2TOX_HILL_SLOPE 2.98, HEPG2TOX_R_SQUARED 0.916, PBLUC_HILL_SLOPE 1.18, PBLUC_R_SQUARED 0.608, read-out: LUCIFERASE INFECTION ASSAY - IC50): 5.41 µM |
| COc1ccc(-c2cnc3ccc(-c4cccc(F)c4)nn23)cc1OC | 1.27 | IC50 (HEPG2TOX_HILL_SLOPE 3.03, HEPG2TOX_R_SQUARED 0.965, PBLUC_HILL_SLOPE 7.81, PBLUC_R_SQUARED 0.531, read-out: LUCIFERASE INFECTION ASSAY - IC50): 0.958 µM |
| COc1ccc(-c2cnc3cnc(-c4ccco4)cn23)cc1 | 7.67 | IC50 (HEPG2TOX_HILL_SLOPE 2.99, HEPG2TOX_R_SQUARED 0.923, PBLUC_HILL_SLOPE 3.57, PBLUC_R_SQUARED 0.717, read-out: LUCIFERASE INFECTION ASSAY - IC50): 4.15 µM |
| Cc1nc2ncnn2c(Nc2cccc(Cl)c2C)c1Cl | > 10.7 | IC50 (HEPG2TOX_HILL_SLOPE 3, HEPG2TOX_R_SQUARED 0.869, PBLUC_HILL_SLOPE 3.03, PBLUC_R_SQUARED 0.114, read-out: LUCIFERASE INFECTION ASSAY - IC50): 5.55 µM |
| CN(CC(=O)Nc1ccccc1N1CCCCCC1)S(=O)(=O)c1ccccc1C#N | > 10 | IC50 (HEPG2TOX_HILL_SLOPE 3.04, HEPG2TOX_R_SQUARED 0.862, PBLUC_HILL_SLOPE 1.2, PBLUC_R_SQUARED 0.365, read-out: LUCIFERASE INFECTION ASSAY - IC50): 9.69 µM |
| COc1cc2c(C#N)c(N3CCN(c4ccccc4OC)CC3)nc(N)c2c(N)n1 | 4.7 | IC50 (HEPG2TOX_HILL_SLOPE 3.01, HEPG2TOX_R_SQUARED 0.942, PBLUC_HILL_SLOPE 1.46, PBLUC_R_SQUARED 0.909, read-out: LUCIFERASE INFECTION ASSAY - IC50): 1.04 µM |
